Measured values from EP0643693B1, “REVERSAL OF MULTI-DRUG RESISTANCE BY TRIPHENYL-PIPERIDINE DERIVATIVES” (MERRELL PHARMACEUTICALS INC., priority 1992, dated 1993).
Structures can show the parent of a compound that is named as a salt.

Assays:
[1] = tested on: multidrug resistant human epidermoid carcinoma (KBV1) cells; experiment: Growth inhibition of vinblastine-resistant KBV1 cells (reversal of multidrug resistance); type: cell-based
Method: The ability of compounds of this invention to reverse multi drug resistance can be determined using standard test procedures. The ability of the test compounds to inhibit the growth of multidrug resistant human epidermoid carcinoma (KBV1) cells in the presence of both Vinblastine and the compound was determined. […]

[2] = tested on: multidrug resistant human epidermoid carcinoma (KBV1) cells; experiment: as above; type: cell-based; remark: listed apart in the source

| SMILES | inhibition at 0.06 µM ([1]; KB-V1, compound 0.06 µM + VLB at 0.25 µg/ml) [%] | inhibition at 0.12 µM ([1]; KB-V1, compound 0.12 µM + VLB at 0.25 µg/ml) [%] | inhibition at 0.18 µM ([1]; KB-V1, compound 0.18 µM + VLB at 0.25 µg/ml) [%] | inhibition at 0.23 µM ([1]; KB-V1, compound 0.23 µM + VLB at 0.25 µg/ml) [%] | inhibition at 0.06 µM ([2]; Homo sapiens, KB-V1, compound alone, 0.06 µM) [%] | inhibition at 0.12 µM ([2]; Homo sapiens, KB-V1, compound alone, 0.12 µM) [%] | inhibition at 0.18 µM ([2]; Homo sapiens, KB-V1, compound alone, 0.18 µM) [%] | inhibition at 0.23 µM ([2]; Homo sapiens, KB-V1, compound alone, 0.23 µM) [%] | inhibition at 0.25 µg/mL ([2]; Homo sapiens, KB-V1, VLB at 0.25 µg/ml alone, read-out: growthinhibition) [%] | growth inhibition ([2]; Vinblastine (0.25 µg/ml) alone) |
| --- | --- | --- | --- | --- | --- | --- | --- | --- | --- | --- |
| COc1ccc(CCN2CCCCC2CC(c2ccccc2)c2ccccc2)cc1OC (stereo not shown) [1-(3,4-Dimethoxyphenethyl)-2-(2,2-diphenylethyl)piperidine Maleate] | 30.4 | 60 | 91.6 | 94.2 | 1 | 0 | 8.1 | 12.2 | – | – |
| CC[C@]1(O)C[C@@H]2CN(CCc3c([nH]c4ccccc34)[C@@](C(=O)OC)(c3cc4c(cc3OC)N(C)[C@H]3[C@@](O)(C(=O)OC)[C@H](OC(C)=O)[C@]5(CC)C=CCN6CC[C@]43[C@@H]65)C2)C1 [Vinblastine, reference compound] | – | – | – | – | – | – | – | – | 0 to 10 | 0 - 10% |
